row,SMILES,melting point [°C]
1,C=CCC1C(=NO)C2CCC1CC2 (configuration not stated),124 to 125
2,O=[N+]([O-])c1cccc(Oc2nccnc2Cl)c1,119 to 121
3,O=C1Nc2ccncc2N2CCNCC12 (configuration not stated),303 to 306
4,c1ccc(Cn2ccc3nnc4ccccc4c32)cc1,190 to 192
5,CCCc1nc(NCCOC(N)=O)nc(N2CCOCC2)n1,139 to 140
6,COc1cc(C)c(-c2c(C)cncc2C)c(C)c1,87 to 88
7,CC1=NCC2CC(=O)N(c3ccccc3)c3cc(Cl)ccc3N12 (configuration not stated),248 to 251
8,O=C1c2ccccc2OCN1CCCl,45
9,O=c1oc2c(c(O)c1C(c1ccccc1)C1CC1)CCCCC2CC1CCCOC1 (configuration not stated),82 to 90
10,ON=C1CCn2c(-c3ccc(Br)cc3)nc3c(Cl)ccc1c32,> 250
11,CC1CSC2=C(O1)c1cc(-c3ccccc3)ccc1C(=O)C2=O (configuration not stated),190 to 192
12,Cc1ccc(S(=O)(=O)OC[C@H]2CN(c3cccc(F)c3)C(=O)O2)cc1,114 to 115
13,Cc1c(N(C)C)ccc(Br)c1N=C1NCCN1,157 to 158
14,O=C1c2ccc(O)cc2OCC1Cc1cccnc1 (configuration not stated),181 to 190
15,Fc1cc(OCc2ccccc2)cnc1-c1ccccc1,105 to 106
16,Cc1cccc(NC(=O)NC2N=C(c3ccccc3F)c3ccccc3N(Cc3nc4ccccc4o3)C2=O)c1 (racemic),209 to 210
17,O=C(CF)Nc1ccccc1,77 to 78.5
18,O=c1ccsc2c1[nH]c1ccccc12,242 to 243
19,CC(C)(C)c1ccc(C(=O)C(Cl)(Cl)Cl)cc1,59 to 62

# Next, values leading:
row,melting point [°C],SMILES
1,136 to 138,COc1cc(-c2nc(N)sc2CCC2CCC(C)(C)CC2)c(OC)cc1C
2,152,CC(C)Cc1nccc2c(CC(=O)O)cccc12
3,99 to 101,CNC(=O)N(N)CC(C)O (configuration not stated)
4,> 250,CCOC(=O)c1cccc(-c2cc3c(O)ncnc3[nH]2)c1
5,116,CC(C)(C)OC(=O)NCCNS(=O)(=O)c1cc([N+](=O)[O-])c(Cl)s1
6,215 to 216,Cc1cc(CNC(=O)c2sc(N3C[C@@H](C)N(Cc4ccc(F)cc4)C3=O)nc2C)[nH]n1
7,235,COc1ccc(-c2coc3c(C)c(O)ccc3c2=O)cc1
8,137 to 140,CC(N)=CC(=O)CS(=O)(=O)N(C)C
9,211 to 212,O=C(C(=O)c1ccc([N+](=O)[O-])cc1)c1ccc([N+](=O)[O-])cc1
10,118 to 120,COc1cccc(NC(=O)C(C)Oc2ccc(Oc3ccc(C#N)cc3)cc2)c1 (configuration not stated)
11,144 to 148,CS(=O)(=O)c1nnc(-c2ccccc2Nc2cccc(C(F)(F)F)c2)o1
12,104 to 110,N#Cc1c(NCCCN2CCCC2)ncc2c1-c1ccccc1C(c1ccc(Cl)c(Cl)c1)C2 (configuration not stated)
13,149 to 152,O=C(CN1CCC(Cc2ccc(F)cc2)CC1)Nc1ccc2[nH]ncc2c1
14,144 to 146,CC(C)(C)OC(=O)NCCN(O)C(N)=O
15,81 to 83,O=c1cc(NCCNCCOc2cccc3c2OCCO3)cn[nH]1
16,70 to 72,CCOC(=O)C1CCc2c(c3ccccc3n2C(=O)c2ccc(C)cc2)C1 (configuration not stated)
17,155 to 156,CC1(C)CCCCc2ccc(C(=O)O)cc21
18,162 to 163,CC[C@@H]1c2onc(-c3ccc(Cl)cc3)c2CC[C@H]1C(=O)O (relative stereo)
19,192 to 193,COc1cc(CC(C)(C)NC(=O)c2ccc(=O)n(-c3ccc4cc(C)ccc4n3)c2)cc2c1OC(C)(C)C2
20,37 to 39,CCCC[C@H]1CC[C@H](C(=O)O)CC1
21,178 to 180,CC(C)N1OCC(=Cc2cc(C(C)(C)C)c(O)c(C(C)(C)C)c2)C1=O
22,164 to 167,COc1ccc2c(c1)c(Cc1cc(=O)n(-c3cccc(Br)c3)[nH]1)c(C)n2C(=O)c1ccc(Cl)cc1
23,201 to 204,C[C@@H](NC(=O)c1csc(-c2ccc(Cl)cc2)n1)[C@](O)(Cn1cncn1)c1ccc(F)cc1F

# From a melting point compilation (Tetko et al.; mined from patent text by program, amines drawn as free bases though some values may be those of a salt)
